In article PMC6532548, “Embelin, a Potent Molecule for Alzheimer's Disease: A Proof of Concept From Blood-Brain Barrier Permeability, Acetylcholinesterase Inhibition and Molecular Docking Studies” (Frontiers in Neuroscience, 2019):

Target: acetylcholinesterase (AChE) (Electrophorus electricus, UniProt O42275)
Assay: Ellman's assay with electric eel AChE, acetylthiocholine iodide substrate
Assay type: biochemical

Chain of acetylcholinesterase (AChE) (O42275 24-633): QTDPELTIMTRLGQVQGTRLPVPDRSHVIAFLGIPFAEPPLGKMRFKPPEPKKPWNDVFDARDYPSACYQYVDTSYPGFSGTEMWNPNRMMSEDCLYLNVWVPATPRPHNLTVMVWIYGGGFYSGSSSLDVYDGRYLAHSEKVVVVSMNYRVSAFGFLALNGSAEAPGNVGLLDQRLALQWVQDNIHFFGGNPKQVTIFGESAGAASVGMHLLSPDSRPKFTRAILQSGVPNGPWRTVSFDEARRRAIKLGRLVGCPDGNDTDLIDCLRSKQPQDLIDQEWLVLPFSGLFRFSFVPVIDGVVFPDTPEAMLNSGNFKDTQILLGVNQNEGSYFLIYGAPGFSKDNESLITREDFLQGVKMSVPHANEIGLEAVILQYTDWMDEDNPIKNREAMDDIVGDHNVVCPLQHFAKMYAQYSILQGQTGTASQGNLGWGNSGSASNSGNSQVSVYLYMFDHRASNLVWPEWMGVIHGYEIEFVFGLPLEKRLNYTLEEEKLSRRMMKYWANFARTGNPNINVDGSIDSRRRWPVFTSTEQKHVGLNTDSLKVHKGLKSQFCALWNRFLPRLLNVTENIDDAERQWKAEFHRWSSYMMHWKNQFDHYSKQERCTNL

In the case of `CCCCCCCCCCCC1=C(O)C(=O)C=C(O)C1=O` [embelin, 2,5-dihydroxy-3-undecyl-1,4-benzoquinone], the IC50 is reported as 169 µM.
